Measurements from patent US12076307B2, “Compositions for prevention or treatment of acute radiation syndrome and other radiation exposure” (priority 2017, dated 2024).
pIC50: −log10 of the molar value. Several values for one entry are separate records, joined by “and”; a condition that tells them apart may be missing. Identical values can stand only once. Like-named read-outs stand apart in the source and are kept apart here.

Experiments:
Balb/c mice, 6.11 Gy TBI = test: Dosing schedule optimization (delayed treatment) in LD70/30 model; format: in vivo, mouse
Method: EC-18 was administered daily in-life with its optimal dosage (250 mg/kg) at 0, 1, 2, and 3 days after irradiation on Day 0. To examine the durable efficacy of EC-18, the survival was examined 15 days after the in-life phase without the daily treatment of EC-18.
EC-18 was administered daily in-life with its optimal dosage (250 mg/kg) at 0, 1, 2, and 3 days after irradiation on Day 0. The survival rate of the γ-radiation only group was 35%. The percentages of survival of the irradiated mice with EC-18+0d, +1d, +2d, and +3d were 80, 70, 55, and 80%, respectively (FIG. 72).

[1] = system: Pseudomonas aeruginosa K (PAK); test: Co-culture of bone marrow-derived monocytes with PAK, CFU; format: cell-based; details: 100 μg/mL 1 hr; PAK MOI 50
Method: Structural-Activity Relationship Work of EC-18 To assess the optimal structure of EC-18, structural-activity relationship work was examined. A total of five structural analogs of EC-18 were selected by changing one fatty acid chain structure (red boxes in FIG. 43) and evaluated in bone marrow-derived monocytes co-cultured with Pseudomonas aeruginosa K (PAK). All analogs along with EC-18 were inoculated with PAK at the multiplicity of infection (MOI) of 50 for 30 mins and then, treated for 1 hr at the dosage of 100 μg/mL.
As a measure of […], the colony-forming units (CFUs) from each group were examined.

ICR mice = test: CNS function in mice (Irwin test); format: in vivo, mouse; details: single oral doses up to 2000 mg/kg; 4 hrs
[2] = In vitro metabolic stability / metabolite screening, statements over all species; format: in vitro ADME, rat, dog, monkey, human
Method: [^14C]EC-18 or the positive control (7-ethoxycoumarin; 7-EC) reacted with microsomes prepared from hepatocytes of rats, dogs, monkeys, and humans, with or without cofactors, for 60 and 120 min. Then, the residual EC-18 concentration over time was measured by LC-RID ([^14C]EC-18) or LC-MS/MS (7-EC) (FIG. 63 and FIG. 64).
The LC-RID chromatographic profiles of radioactive metabolites produced in the 2-hr incubation reaction mixtures of the same test systems A, B, and C used to assess the metabolic and non-metabolic elimination rates of EC-18 were compared to the LC-UV chromatographic profiles of the synthetic reference material. […] The relative radioactivity of EC-18 accounted for 42-67% of total radioactivity. The peaks designated as M2, M3, and M5 were also determined in all species, and their relative radioactivity accounted for 12-34% of total radioactivity. The peaks of M4 and M6 were determined in monkeys and humans. M1 was abundantly detected in all species, but it was assumed to be a peak of early elution. The LC-UV chromatograms of reaction mixtures in each test system (FIGS. 65A-65C) and the relative radioactivity of the screened metabolites are shown in Table 25.

CYP1A2 = format: in vitro ADME, human; details: for Enzyme Activity CYP1A2: n=3
CYP2C19 = CYP2C19 (Homo sapiens, UniProt P33261); test: CYP enzyme inhibition in human liver microsomes, CYP2C19
Excerpt: (§1) CYP1A2, CYP2C9, CYP2C19, CYP2D6, and CYP3A4 are the CYP subfamily, which plays a critical role in the metabolism of most drugs.

CYP2D6 = CYP2D6 (Homo sapiens, UniProt P10635); test: CYP enzyme inhibition in human liver microsomes, CYP2D6
Excerpt: as §1

CYP3A4 = CYP3A4 (Homo sapiens, UniProt P08684); test: CYP enzyme inhibition in human liver microsomes, CYP3A4
Excerpt: as §1

OATP1B1 = molecular target: T1, OATP1B1 (Homo sapiens, UniProt Q9Y6L6); test: Drug transporter inhibition, OATP1B1; format: in vitro ADME; details: 100 nM [3H] estrone-3-sulfate; transfected HEK-293 cells
T1 construct: expressed in transfected cells; host or cells: HEK-293
Method: (§2) This study examined the potential of EC-18 to interact with the transporter proteins that have been known to be involved in the absorption of commercially available drugs. EC-18 was pre-incubated with HEK-293 cells and LLC-PK1 cells that were transfected with the genes of most drug transporters as follows: OATP1B1, OATP1B3, OAT1, OAT3 and OCT2, and BCRP and P-gp, respectively.

OATP1B3 = molecular target: T2, OATP1B3 (Homo sapiens, UniProt Q9NPD5); test: Drug transporter inhibition, OATP1B3; format: in vitro ADME; details: 100 nM [3H] estradiol-17β-D-glucuronide; transfected HEK-293 cells
T2 construct: expressed in transfected cells; host or cells: HEK-293
Method: as §2

P-gp = molecular target: T3, P-gp (Homo sapiens, UniProt P08183); test: Drug transporter inhibition, P-gp; format: in vitro ADME; details: [3H]digoxin; transfected LLC-PK1 cells
T3 construct: expressed in transfected cells; host or cells: LLC-PK1
Method: as §2

[3] = Embryo-fetal developmental toxicity study, NZW rabbit; format: in vivo; details: NZW, rabbit, in vivo; definitive study; Oral 13 days
Excerpt: (§3) Various toxicology studies have been performed. All studies were GLP-compliant unless otherwise noted.

NZW rabbit = test: as above; format: in vivo; details: Oral 13 days
Excerpt: as §3

[4] = 6.11 Gy, 250 mg/kg daily starting +0 d
[5] = 6.11 Gy, 250 mg/kg daily starting +1 d
[6] = 6.11 Gy, 250 mg/kg daily starting +2 d
[7] = 6.11 Gy, 250 mg/kg daily starting +3 d
[8] = 6.11 Gy, 250 mg/kg daily starting +3 d, 250 mg/kg

Chain of CYP2C19 (P33261 whole entry): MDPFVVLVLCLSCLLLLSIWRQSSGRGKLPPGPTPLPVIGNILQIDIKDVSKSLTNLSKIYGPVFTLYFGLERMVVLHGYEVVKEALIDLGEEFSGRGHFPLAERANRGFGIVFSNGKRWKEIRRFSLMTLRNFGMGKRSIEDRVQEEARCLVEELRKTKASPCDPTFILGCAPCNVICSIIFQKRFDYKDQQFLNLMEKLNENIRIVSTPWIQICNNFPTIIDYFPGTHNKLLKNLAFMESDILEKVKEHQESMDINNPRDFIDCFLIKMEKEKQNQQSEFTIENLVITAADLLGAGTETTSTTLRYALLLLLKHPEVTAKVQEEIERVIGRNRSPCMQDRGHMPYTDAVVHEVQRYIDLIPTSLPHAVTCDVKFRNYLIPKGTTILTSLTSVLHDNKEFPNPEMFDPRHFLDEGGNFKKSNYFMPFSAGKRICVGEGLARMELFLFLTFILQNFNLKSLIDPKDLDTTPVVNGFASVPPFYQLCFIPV
T3 sequence (P08183 whole entry): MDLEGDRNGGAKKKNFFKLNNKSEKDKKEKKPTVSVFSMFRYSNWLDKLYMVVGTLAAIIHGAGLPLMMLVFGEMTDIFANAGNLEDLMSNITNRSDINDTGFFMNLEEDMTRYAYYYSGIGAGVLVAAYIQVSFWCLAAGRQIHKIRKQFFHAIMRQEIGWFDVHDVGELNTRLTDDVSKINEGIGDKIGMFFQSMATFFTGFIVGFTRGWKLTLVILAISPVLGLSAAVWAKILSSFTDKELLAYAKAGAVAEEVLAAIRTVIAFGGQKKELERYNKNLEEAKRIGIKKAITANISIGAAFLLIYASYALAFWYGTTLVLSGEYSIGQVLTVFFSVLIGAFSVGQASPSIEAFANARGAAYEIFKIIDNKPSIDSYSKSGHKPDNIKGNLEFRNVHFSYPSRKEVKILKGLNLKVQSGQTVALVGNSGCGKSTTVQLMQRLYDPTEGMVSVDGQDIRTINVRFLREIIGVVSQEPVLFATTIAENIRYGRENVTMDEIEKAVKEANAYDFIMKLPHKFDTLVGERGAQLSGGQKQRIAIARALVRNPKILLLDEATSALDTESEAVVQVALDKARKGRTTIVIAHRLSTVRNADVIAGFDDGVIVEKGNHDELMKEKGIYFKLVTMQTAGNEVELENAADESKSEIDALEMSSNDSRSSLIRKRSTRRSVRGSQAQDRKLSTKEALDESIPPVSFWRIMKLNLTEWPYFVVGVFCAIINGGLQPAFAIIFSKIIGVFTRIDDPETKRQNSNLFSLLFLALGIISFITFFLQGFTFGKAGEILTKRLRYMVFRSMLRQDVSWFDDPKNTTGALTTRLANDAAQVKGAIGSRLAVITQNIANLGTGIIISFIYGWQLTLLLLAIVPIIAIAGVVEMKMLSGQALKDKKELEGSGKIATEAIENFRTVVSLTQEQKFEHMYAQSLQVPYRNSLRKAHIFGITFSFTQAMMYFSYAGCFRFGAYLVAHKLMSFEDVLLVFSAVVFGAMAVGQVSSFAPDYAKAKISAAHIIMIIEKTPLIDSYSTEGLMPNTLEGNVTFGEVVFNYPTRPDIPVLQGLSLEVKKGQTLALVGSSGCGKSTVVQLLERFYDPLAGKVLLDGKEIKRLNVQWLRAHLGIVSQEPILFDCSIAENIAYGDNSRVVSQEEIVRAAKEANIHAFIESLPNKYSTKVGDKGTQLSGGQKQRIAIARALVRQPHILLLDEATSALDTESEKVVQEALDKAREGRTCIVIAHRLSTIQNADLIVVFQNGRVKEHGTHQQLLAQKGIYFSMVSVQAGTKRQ
Chain of CYP3A4 (P08684 whole entry): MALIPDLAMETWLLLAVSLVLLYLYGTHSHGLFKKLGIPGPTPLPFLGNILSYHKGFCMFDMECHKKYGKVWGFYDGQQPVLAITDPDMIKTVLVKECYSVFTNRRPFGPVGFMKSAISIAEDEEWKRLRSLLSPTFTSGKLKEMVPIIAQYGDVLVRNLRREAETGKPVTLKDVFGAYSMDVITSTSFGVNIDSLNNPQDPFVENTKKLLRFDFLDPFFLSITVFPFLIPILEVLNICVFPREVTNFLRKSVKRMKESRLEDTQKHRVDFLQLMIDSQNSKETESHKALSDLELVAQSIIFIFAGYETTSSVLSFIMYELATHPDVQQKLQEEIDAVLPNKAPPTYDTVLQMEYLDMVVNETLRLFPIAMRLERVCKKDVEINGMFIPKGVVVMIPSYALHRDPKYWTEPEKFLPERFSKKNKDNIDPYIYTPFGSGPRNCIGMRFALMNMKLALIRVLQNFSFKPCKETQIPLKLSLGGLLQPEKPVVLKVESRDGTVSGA
T1 sequence (Q9Y6L6 whole entry, species assumed): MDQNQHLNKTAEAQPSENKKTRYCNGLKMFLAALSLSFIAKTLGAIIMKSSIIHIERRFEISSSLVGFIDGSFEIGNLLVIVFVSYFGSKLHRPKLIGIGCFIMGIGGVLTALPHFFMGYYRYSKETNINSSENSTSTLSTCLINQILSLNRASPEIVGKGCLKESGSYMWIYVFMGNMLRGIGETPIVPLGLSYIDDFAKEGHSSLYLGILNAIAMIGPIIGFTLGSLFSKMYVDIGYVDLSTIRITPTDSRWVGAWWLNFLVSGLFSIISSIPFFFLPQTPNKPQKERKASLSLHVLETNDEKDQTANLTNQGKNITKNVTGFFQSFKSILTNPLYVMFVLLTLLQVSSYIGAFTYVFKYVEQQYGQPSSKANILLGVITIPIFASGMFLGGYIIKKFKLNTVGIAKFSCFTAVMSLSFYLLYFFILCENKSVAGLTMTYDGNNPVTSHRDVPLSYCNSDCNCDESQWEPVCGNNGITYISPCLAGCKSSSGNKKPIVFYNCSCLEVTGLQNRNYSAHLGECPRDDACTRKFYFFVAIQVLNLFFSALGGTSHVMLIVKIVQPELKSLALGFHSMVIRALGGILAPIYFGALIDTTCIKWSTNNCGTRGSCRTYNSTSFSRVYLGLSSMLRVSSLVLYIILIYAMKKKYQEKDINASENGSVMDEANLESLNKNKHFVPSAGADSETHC
T2 sequence (Q9NPD5 whole entry, species assumed): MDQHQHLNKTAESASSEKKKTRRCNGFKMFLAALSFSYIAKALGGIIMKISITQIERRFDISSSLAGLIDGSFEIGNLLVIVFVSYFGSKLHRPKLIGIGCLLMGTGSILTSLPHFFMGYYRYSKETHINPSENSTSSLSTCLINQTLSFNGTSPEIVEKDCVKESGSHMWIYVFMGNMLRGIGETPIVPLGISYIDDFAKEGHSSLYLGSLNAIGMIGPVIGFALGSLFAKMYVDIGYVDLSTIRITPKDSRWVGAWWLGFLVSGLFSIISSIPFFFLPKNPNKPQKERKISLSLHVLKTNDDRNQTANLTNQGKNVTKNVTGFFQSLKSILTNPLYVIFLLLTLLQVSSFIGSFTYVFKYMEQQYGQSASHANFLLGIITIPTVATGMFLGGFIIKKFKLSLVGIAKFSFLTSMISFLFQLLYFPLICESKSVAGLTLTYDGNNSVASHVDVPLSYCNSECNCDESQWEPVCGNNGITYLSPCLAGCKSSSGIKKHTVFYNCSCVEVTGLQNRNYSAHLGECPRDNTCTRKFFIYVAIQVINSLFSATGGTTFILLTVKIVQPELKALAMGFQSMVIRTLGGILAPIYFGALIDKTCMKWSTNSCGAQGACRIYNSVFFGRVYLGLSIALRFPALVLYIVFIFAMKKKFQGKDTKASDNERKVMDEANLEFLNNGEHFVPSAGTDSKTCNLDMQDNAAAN
Chain of CYP2D6 (P10635 whole entry): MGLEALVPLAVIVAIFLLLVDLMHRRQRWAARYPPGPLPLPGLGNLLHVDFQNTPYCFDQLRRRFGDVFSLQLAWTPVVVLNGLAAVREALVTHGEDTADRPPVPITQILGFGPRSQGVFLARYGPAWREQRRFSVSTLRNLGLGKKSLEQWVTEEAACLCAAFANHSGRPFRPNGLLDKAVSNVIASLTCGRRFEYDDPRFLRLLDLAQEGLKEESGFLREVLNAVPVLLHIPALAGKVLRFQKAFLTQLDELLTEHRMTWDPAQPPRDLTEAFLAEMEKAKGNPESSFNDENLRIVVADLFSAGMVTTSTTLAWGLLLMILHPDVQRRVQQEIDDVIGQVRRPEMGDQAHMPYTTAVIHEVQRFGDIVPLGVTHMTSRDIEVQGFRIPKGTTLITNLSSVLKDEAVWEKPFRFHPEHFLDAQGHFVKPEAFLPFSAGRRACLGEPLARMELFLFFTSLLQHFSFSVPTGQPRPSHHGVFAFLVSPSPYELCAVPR

For `CCCCC/C=C\C/C=C\CCCCCCCC(=O)OC(COC(C)=O)COC(=O)CCCCCCCCCCCCCCC` (stereo not drawn) [EC-18, 1-palmitoyl-2-linoleoyl-3-acetylglycerol], the “survival vs negative control” value (Balb/c mice, 6.11 Gy TBI; 250 mg/kg, even up to 3-day-delayed treatment regimen) was “significantly improved”, the “weight loss induced by irradiation” value (Balb/c mice, 6.11 Gy TBI; 6.11 Gy, 250 mg/kg) was “effectively prevented and rapidly recovered weight loss” and the “No. of mice that survived/total” value (Balb/c mice, 6.11 Gy TBI; [4]) was 16/20. The Survival (Balb/c mice, 6.11 Gy TBI; [4]) was 80%, the “Survival time of decedents, Median” value (Balb/c mice, 6.11 Gy TBI; [4]) was 24.5 days and the “Survival time of decedents, Mean ± SEM” value (Balb/c mice, 6.11 Gy TBI; 6.11 Gy, 250 mg/kg daily starting +0 d, 250 mg/kg) was 25.0 days and 25.0 ± 1.1 days. The “No. of mice that survived/total” value (Balb/c mice, 6.11 Gy TBI; [5]) was 14/20, the Survival (Balb/c mice, 6.11 Gy TBI; [5]) was 70% and the “Survival time of decedents, Median” value (Balb/c mice, 6.11 Gy TBI; [5]) was 23.5 days. The “Survival time of decedents, Mean ± SEM” value (Balb/c mice, 6.11 Gy TBI; 6.11 Gy, 250 mg/kg daily starting +1 d, 250 mg/kg) was 23.7 days and 23.7 ± 1.4 days, the “No. of mice that survived/total” value (Balb/c mice, 6.11 Gy TBI; [6]) was 11/20 and the Survival (Balb/c mice, 6.11 Gy TBI; [6]) was 55%. The “Survival time of decedents, Median” value (Balb/c mice, 6.11 Gy TBI; [6]) was 18.0 days, the “Survival time of decedents, Mean ± SEM” value (Balb/c mice, 6.11 Gy TBI; 6.11 Gy, 250 mg/kg daily starting +2 d, 250 mg/kg) was 18.1 days and 18.1 ± 0.8 days and the “No. of mice that survived/total” value (Balb/c mice, 6.11 Gy TBI; [7]) was 11/20. The “Survival time of decedents, Median” value (Balb/c mice, 6.11 Gy TBI; [7]) was 23.0 days, the Survival (Balb/c mice, 6.11 Gy TBI; [8]) was 80% and 55% and the “Survival time of decedents, Mean ± SEM” value (Balb/c mice, 6.11 Gy TBI; [8]) was 22.3 days and 22.3 ± 1.6 days. The “durable efficacy after withdrawal of EC-18” value (Balb/c mice, 6.11 Gy TBI; 15 days after the in-life phase without daily treatment) was “extended the survival of animals for an extra 15 days”, the “colony-forming units (CFUs) vs other analogs or control groups” value [1] was “significantly higher” and the “CNS function (Irwin test)” value (ICR mice) was “did not affect the CNS function”. The “relative radioactivity of total radioactivity” value ([2]; 2-hr incubation, all species and test systems) was 42-67%, the “residual EC-18 concentration relative to initial concentration” value ([2]; 1 hr, test systems A, B, C, all species) was at least 50% and the “order of residual EC-18 concentration” value ([2]; 2 hrs) was “human>rat and dog>monkey”. For the same compound, the “residual EC-18 concentration” value ([2]; 2 hrs, all test systems, all species except monkeys) was at least 50%, the “Enzyme Activity CYP1A2” value (CYP1A2; 1 μM) was 0.33 ± 0.04 pmol/106 Cells/Min and the “Enzyme Activity CYP1A2” value (CYP1A2; 10 μM) was 0.38 ± 0.06 pmol/106 Cells/Min. The “Enzyme Activity CYP1A2” value (CYP1A2; 100 μM) was 0.33 ± 0.04 pmol/106 Cells/Min, the “potential to induce CYP1A2” value (CYP1A2; up to 100 μM) was “no potential to induce” and the pIC50 (CYP2C19) was 4.08. It also gave a pIC50 (CYP2D6) of 4.17, a pIC50 (CYP3A4) of 4.57 and a pIC50 (OATP1B1) of under 4.49. The pIC50 (OATP1B3) was under 4.49, the pIC50 (P-gp) was under 4.49 and the NOAEL at 13 days [3] was 500 mg/kg/day. For the same compound, the findings (NZW rabbit; DRF study, 0, 125, 250, 500 mg/kg) was “No specific findings”, the mortality (NZW rabbit; DRF study, 250 mg/kg dose group, day 8 of pregnancy, attributed to loss of appetite before dosing) was “A single case of death” and the mortality (NZW rabbit; definitive study, 0, 125, 250, 500 mg/kg) was “No dead animals”.
